By EC50 is commonly meant the concentration at which the effect is half-maximal. The low end stands for an effect from little substance, the high end for a need for much substance.

For seven molecules, CC50 and EC50 results are on record in ChEMBL document CHEMBL1150525, “Phosphate derivatives of d4T as inhibitors of HIV” (Bioorg Med Chem Lett, 1993).

The nature of data set [1]: Toxic concentration against HIV-1 IIIB in C8166 T-cells. The data set is classed as ADME, cell-based. To be noted: human, read-out: TC50 (the source's name).
The subject of a further data set is C8166. The data set can be described thus: Ability to inhibit the replication of HIV-1 IIIB infected C8166 cells. To be noted: Homo sapiens. It is filed as functional, cell-based.

Molecules are shown by their SMILES. Bounds are passed on as bounds.

As for `CCCOP(=O)(OCCC)OCC1C=CC(n2cc(C)c(=O)[nH]c2=O)O1` (centres undefined), the CC50 in data set [1] was 200 µM. Moreover, the EC50 with C8166 was above 200 µM.

Consider `Cc1cn([C@H]2C=C[C@@H](CO)O2)c(=O)[nH]c1=O` [STAVUDINE], for which, in data set [1], the CC50 is 50 µM. This molecule came in with an EC50 in the data set with C8166 of 0.08 µM.

In the case of `CCCOP(=O)(NC(C)C(=O)OC)OCC1C=CC(n2cc(C)c(=O)[nH]c2=O)O1` (centres undefined), in data set [1], the CC50 worked out at 250 µM. In the data set on C8166, this molecule registered an EC50 of 200 µM.

With `CCCOP(=O)(OCC1C=CC(n2cc(C)c(=O)[nH]c2=O)O1)OCC(Cl)(Cl)Cl` (centres undefined), the CC50 in data set [1] turned out to be 500 µM. The molecule also displayed an EC50 in the data set with C8166 of 20 µM.

For the molecule `COC(=O)C(C)NP(=O)(OCC1C=CC(n2cc(C)c(=O)[nH]c2=O)O1)OCC(Cl)(Cl)Cl` (centres undefined), the CC50 in data set [1] was determined as 500 µM. This molecule yielded an EC50 in the data set with C8166 of 0.2 µM.

As to `Cc1cn(C2C=CC(COP(=O)(OCC(Cl)(Cl)Cl)OCC(Cl)(Cl)Cl)O2)c(=O)[nH]c1=O` (centres undefined), the CC50 in data set [1] is 150 µM. The molecule further returned a concentration giving a half-maximal response (EC50) in the data set with C8166 of 0.4 µM.

Regarding `Cc1cn(C2C=CC(COP(=O)(OCC(F)(F)F)OCC(F)(F)F)O2)c(=O)[nH]c1=O` (centres undefined), the CC50 in data set [1] worked out at 500 µM. Also, the EC50 with C8166 stood at 15 µM.
